The test system of one test is HCT116 cells. Kind of test: In vitro cytotoxicity, MTT assay, HCT116. It counts as cell-based, human. To be noted: 48 h continuous drug exposure. As to the method:
(§1) All cell lines used in this study were purchased from the American Type Culture Collection (ATCC, United States). A549, MCF-7, and HeLa were grown in Dulbecco's modified Eagle's medium (containing 10% FBS in a humidified atmosphere of 5% CO2 at 37° C.). HCT116 cells were cultured in Eagle's minimal essential medium (MEM) containing non-essential amino acids, 1 mM sodium pyruvate, […] bovine insulin, and 10% FBS. Cells were trypsinized when sub-confluent from T25 flasks/60 mm dishes and seeded in 96-well plates. The synthesized test compounds were evaluated for their in vitro antiproliferative in four different human cancer cell lines. A protocol of 48 h continuous drug exposure was used, and a MTT cell proliferation assay was used to estimate cell viability or growth. The cell lines were grown in their respective media containing 10% fetal bovine serum and were seeded into 96-well microtiter plates in 200 μL, aliquots at plating densities depending on the doubling time of individual cell lines. The microtiter plates were incubated at 37° C., 5% CO2, 95% air, and 100% relative humidity for 24 h prior to addition of experimental drugs. Aliquots of 2 μL, of the test compounds were added to the wells already containing 198 μL, of cells, resulting in the required final drug concentrations. For each compound, four concentrations (1, 10, 100, and 1000 μM) were evaluated, and each was done in triplicate wells. Plates were incubated further for 48 h, and the assay was terminated by the addition of 10 μL, of 5% MTT and incubated for 60 min at 37° C. Later, the plates were air-dried. Bound stain was subsequently eluted with 100 μL, of DMSO, and the absorbance was read on an multimode plate reader (Tecan M200) at a wavelength of 560 nm. Percent growth was calculated on a plate by plate basis for test wells relative to control wells. The above determinations were repeated thrice. The growth inhibitory effects of the compounds were analyzed by generating dose response curves as a plot of the percentage surviving cells versus compound concentration. The sensitivity of the cancer cells to the test compound was expressed in terms of IC50, a value defined as the concentration of compound that produced 50% reduction as compared to the control absorbance. (A. S. Kumar, M. A. Reddy, N. Jain, C. Kishor, T. R. Murthy, D. Ramesh, B. Supriya, A. Addlagatta, S. V. Kalivendi, B. Sreedhar. Eur. J. Med. Chem. 60 (2013) 305-24).

For a further test, the system named is MCF-7 cells. Kind of test: In vitro cytotoxicity, MTT assay, MCF-7. It counts as cell-based, human. The settings on record: 48 h continuous drug exposure. As to the method:
as §1
A general note: Tetrazolium dyes change colour on reduction, which living cells bring about.

The test system of the next test is A549 cells. Briefly: In vitro cytotoxicity, MTT assay, A549. It is filed as cell-based, human. The settings on record: A549 (non-small cell lung cancer), 48 h continuous drug exposure. The method, then: as §1
For another test, the system named is HeLa cells. Briefly: In vitro cytotoxicity, MTT assay, HeLa. It counts as cell-based, human. The settings on record: HeLa (cervical carcinoma), 48 h continuous drug exposure. As to the method: as §1
The test system of test [1] is A549, HeLa, MCF-7 and HCT116 cells. Kind of test: In vitro cytotoxicity, MTT assay, summary over all four cancer cell lines. It counts as cell-based. To be noted: Homo sapiens, range over the group of compounds and the four cell lines, read-out: IC50 value range towards all the cancer cell lines. As to the method:
as §1

Where [2] appears, read: Homo sapiens, HCT-116, HCT116 (colon carcinoma).
Where [3] appears, read: Homo sapiens, MCF7, 48 h, MCF-7 (breast cancer).
[4] abbreviates: Homo sapiens, MCF7, MCF-7 (breast cancer).

Consider `COc1ccc(/C=C\c2cc(OC)c(OC)c(OC)c2)cc1OP(=O)(O)O` [Ca-4, Combretastatin, reference compound], for which the half-inhibitory concentration (IC50) with HCT116 cells (HCT116 (colon carcinoma)) came to 3.98 µM; with MCF-7 cells (MCF-7 (breast cancer)), 0.58 µM; in the test with A549 cells, 0.31 µM; with HeLa cells it was 0.58 µM.
Regarding `COc1ccc(/C=C\c2cc(OC)c(OC)c(OC)c2)cc1N/C=C\C(=O)c1ccc(OC(F)(F)F)cc1` [Compound 10o, (Z)-3-((2-methoxy-5-((Z)-3,4,5-trimethoxystyryl)phenyl)amino)-1-(4-(trifluoromethoxy)phenyl)prop-2-en-1-one], the 50% inhibitory concentration (IC50) with HCT116 cells (setting [2]) was 2.95 µM; in the test with MCF-7 cells (setting [3]), 1.32 µM; in the test on A549 cells (Homo sapiens), 2.69 µM; with HeLa cells (Homo sapiens) it was 0.26 µM; in test [1], 0.11 to 4.68 µM.
As to `COc1ccc(C(=O)/C=C\Nc2cc(/C=C\c3cc(OC)c(OC)c(OC)c3)ccc2OC)cc1O` [Compound 10q, (Z)-1-(3-hydroxy-4-methoxyphenyl)-3-((2-methoxy-5-((Z)-3,4,5-trimethoxystyryl)phenyl)amino)prop-2-en-1-one], the IC50 in the test on HCT116 cells (setting [2]) was 0.83 µM; in the test on MCF-7 cells (setting [3]), 4.68 µM; in the test on A549 cells (Homo sapiens), 3.89 µM; in the test with HeLa cells (Homo sapiens), 0.23 µM; in test [1] it was 0.11 to 4.68 µM.
As for `COc1ccc(/C=C\c2cc(OC)c(OC)c(OC)c2)cc1N/C=C\C(=O)c1ccc(OC)c([N+](=O)[O-])c1` [Compound 10t, (Z)-1-(4-methoxy-3-nitrophenyl)-3-((2-methoxy-5-((Z)-3,4,5-trimethoxystyryl)phenyl)amino)prop-2-en-1-one], the IC50 was 1.29 µM in the test with HCT116 cells (setting [2]); 2 µM in the test with MCF-7 cells (setting [3]); 0.77 µM in the test with A549 cells (Homo sapiens); 0.21 µM with HeLa cells (Homo sapiens); 0.11 to 4.68 µM in test [1].
As to `COc1ccc(C(=O)/C=C\Nc2cc(/C=C\c3cc(OC)c(OC)c(OC)c3)ccc2OC)cc1N` [Compound 10u, (Z)-1-(3-amino-4-methoxyphenyl)-3-((2-methoxy-5-((Z)-3,4,5-trimethoxystyryl)phenyl)amino)prop-2-en-1-one], the 50% inhibitory concentration (IC50) in the test on HCT116 cells (setting [2]) was 0.77 µM; in the test with MCF-7 cells (setting [4]), 0.25 µM; in the test with A549 cells (Homo sapiens) it was 2.4 µM; in the test on HeLa cells (Homo sapiens), 0.52 µM; in test [1] it was 0.11 to 4.68 µM.
With `COc1ccc(C=Cc2cc(OC)c(OC)c(OC)c2)cc1N/C=C\C(=O)c1c[nH]c2ccccc12` [Compound 10v, (Z)-1-(1H-indol-3-yl)-3-(2-methoxy-5-(3,4,5-trimethoxystyryl)phenylamino)prop-2-en-1-one], the half-maximal inhibitory concentration (IC50) in the test on HCT116 cells (setting [2]) is 0.33 µM; in the test on MCF-7 cells (setting [3]), 0.11 µM; in the test with A549 cells (Homo sapiens), 0.17 µM; with HeLa cells (Homo sapiens), 0.53 µM; in test [1] it was 0.11 to 4.68 µM.
For `COc1ccc(C=Cc2cc(OC)c(OC)c(OC)c2)cc1N/C=C\C(=O)c1cn(C)c2ccccc12` [Compound 10w, (Z)-3-(2-methoxy-5-(3,4,5-trimethoxystyryl)phenylamino)-1-(1-methyl-1H-indol-3-yl)prop-2-en-1-one], the concentration for half-maximal inhibition (IC50) is 0.37 µM in the test with HCT116 cells (setting [2]); 1.07 µM with MCF-7 cells (setting [3]); 0.67 µM in the test with A549 cells (Homo sapiens); 0.46 µM in the test on HeLa cells (Homo sapiens); 0.11 to 4.68 µM in test [1].
On to `COc1ccc(/C=C\c2cc(OC)c(OC)c(OC)c2)cc1N/C=C\C(=O)c1cc(OC)c(OC)c(OC)c1` [Compound 10x, (Z)-3-((2-methoxy-5-((Z)-3,4,5-trimethoxystyryl)phenyl)amino)-1-(3,4,5-trimethoxyphenyl)prop-2-en-1-one], for which the half-maximal inhibitory concentration (IC50) with HCT116 cells (setting [2]) was 1.51 µM; in the test with MCF-7 cells (setting [3]) it was 0.27 µM; in the test on A549 cells (Homo sapiens), 1.68 µM; in the test on HeLa cells (Homo sapiens), 0.26 µM; in test [1], 0.11 to 4.68 µM.
For the molecule `COc1ccc(/C=C\c2cc(OC)c(OC)c(OC)c2)cc1N/C=C\C(=O)c1cc(OC)c(OC)c(OC)c1Br` [Compound 10y, (Z)-1-(2-bromo-3,4,5-trimethoxyphenyl)-3-((2-methoxy-5-((Z)-3,4,5-trimethoxystyryl)phenyl)amino)prop-2-en-1-one], the IC50 in the test on HCT116 cells (setting [2]) is 3.98 µM; with MCF-7 cells (setting [3]), 2.95 µM; in the test on A549 cells (Homo sapiens) it was 3.51 µM; in the test with HeLa cells (Homo sapiens) it was 0.25 µM; in test [1] it was 0.11 to 4.68 µM.
Take `COc1cc(/C=C\c2cc(OC)c(OC)c(OC)c2)cc(N/C=C\C(=O)c2ccc(OC(F)(F)F)cc2)c1OC` [Compound 11o, (Z)-3-((2,3-dimethoxy-5-((Z)-3,4,5-trimethoxystyryl)phenyl)amino)-1-(4-(trifluoromethoxy)phenyl)prop-2-en-1-one]: the concentration for half-maximal inhibition (IC50) was 7.08 µM with HCT116 cells (setting [2]); 5.7 µM in the test on MCF-7 cells (setting [3]); 5.75 µM with MCF-7 cells (MCF-7 (breast cancer)); 0.21 µM in the test with A549 cells (Homo sapiens); 1.86 µM in the test with HeLa cells (Homo sapiens); 0.12 to 5.75 µM in test [1].
For `COc1ccc(C(=O)/C=C\Nc2cc(/C=C\c3cc(OC)c(OC)c(OC)c3)cc(OC)c2OC)cc1O` [Compound 11q, (Z)-3-((2,3-dimethoxy-5-((Z)-3,4,5-trimethoxystyryl)phenyl)amino)-1-(3-hydroxy-4-methoxyphenyl)prop-2-en-1-one], the IC50 in the test on HCT116 cells (setting [2]) is 3.24 µM; in the test with MCF-7 cells (setting [3]), 2.09 µM; in the test with A549 cells (Homo sapiens), 0.32 µM; in the test on HeLa cells (Homo sapiens) it was 1.91 µM; in test [1] it was 0.12 to 5.75 µM.
In the same order, the values of `COc1ccc(C(=O)/C=C\Nc2cc(/C=C\c3cc(OC)c(OC)c(OC)c3)cc(OC)c2OC)cc1[N+](=O)[O-]` [Compound 11t, (Z)-3-((2,3-dimethoxy-5-((Z)-3,4,5-trimethoxystyryl)phenyl)amino)-1-(4-methoxy-3-nitrophenyl)prop-2-en-1-one] are 4.79 µM, 1.55 µM, 0.15 µM, 1.2 µM and 0.12 to 5.75 µM.
In the same order, the values of `COc1ccc(C(=O)/C=C\Nc2cc(/C=C\c3cc(OC)c(OC)c(OC)c3)cc(OC)c2OC)cc1N` [Compound 11u, (Z)-1-(3-amino-4-methoxyphenyl)-3-((2,3-dimethoxy-5-((Z)-3,4,5-trimethoxystyryl)phenyl)amino)prop-2-en-1-one] are 7.59 µM, 5.25 µM, 0.12 µM, 4.27 µM and 0.12 to 5.75 µM.
With `COc1cc(C=Cc2cc(OC)c(OC)c(OC)c2)cc(N/C=C\C(=O)c2c[nH]c3ccccc23)c1OC` [Compound 11v, (Z)-3-(2,3-dimethoxy-5-(3,4,5-trimethoxystyryl)phenylamino)-1-(1H-indol-3-yl)prop-2-en-1-one], the concentration for half-maximal inhibition (IC50) was 1.48 µM in the test with HCT116 cells (setting [2]); 3.02 µM with MCF-7 cells (setting [4]); 0.56 µM in the test with A549 cells (Homo sapiens); 0.67 µM in the test with HeLa cells (Homo sapiens); 0.12 to 5.75 µM in test [1].
As to `COc1cc(C=Cc2cc(OC)c(OC)c(OC)c2)cc(N/C=C\C(=O)c2cn(C)c3ccccc23)c1OC` [Compound 11w, (Z)-3-(2,3-dimethoxy-5-(3,4,5-trimethoxystyryl)phenylamino)-1-(1-methyl-1H-indol-3-yl)prop-2-en-1-one], the IC50 in the test with HCT116 cells (setting [2]) is 1.95 µM; with MCF-7 cells (setting [3]), 3.39 µM; with A549 cells (Homo sapiens) it was 0.14 µM; in the test on HeLa cells (Homo sapiens), 5.89 µM; in test [1] it was 0.12 to 5.75 µM.
On the same counts, the results for `COc1cc(/C=C\c2cc(OC)c(OC)c(OC)c2)cc(N/C=C\C(=O)c2cc(OC)c(OC)c(OC)c2)c1OC` [Compound 11x, (Z)-3-((2,3-dimethoxy-5-((Z)-3,4,5-trimethoxystyryl)phenyl)amino)-1-(3,4,5-trimethoxyphenyl)prop-2-en-1-one] are 0.28 µM, 7.08 µM, 3.33 µM, 3.72 µM and 0.12 to 5.75 µM.

In general, IC50 refers to the midpoint of a concentration-inhibition curve.

The record behind these values is US9487482B2, “3,4,5-trimethoxystyrylarylaminopropenones as potential anticancer agents” (Council of Scientific and Industrial Research, priority 2014, dated 2016).
